Laboratory results reported in EP0421419A2, “Tocotrienols in the treatment of hypercholesterolemia, hyperlipidemia and thromboembolic disorders” (Bristol-Myers Squibb Company, priority 1989, dated 1991).
In brackets after ≈: the same amount, converted by molar mass. Read-outs that look alike come from different tables or passages of the source.

Tested on: Cholesterol Synthesis in Isolated Rat Hepatocytes
Test: Rat hepatocyte cholesterol biosynthesis model (14C-acetate incorporation into digitonin-precipitable sterols)
Format: cell-based
Conditions: for inhibition at 125 µg/mL / inhibition at 250 µg/mL / inhibition at 500 µg/mL / IC50: Rattus norvegicus, Hepatocyte, 45 min preincubation, 30 min incorporation
Description: Primary rat parenchymal hepatocytes were prepared from male Wistar rats (180-220 g) at mid-dark in the diurnal cycle by standard collagenase perfusion method as described previously. Ingebritsen et al. J. Biol. Chem., 254: 9986-9989, (1979). Aliquots of cells were suspended (100 mg in 2 ml) in Eagle's minimum essential medium (MEM) supplemented with 2% bovine albumin, and preincubated in a shaking water bath at about 37° under 95% O₂/5% CO₂ with compounds added as given in the data. […] Following a preincubation of about 15 to about 45 minutes as indicated, cholesterol synthesis in intact cells was assayed by 2-14C-acetate (1.8 mCi/mmol, 0.5 µCi/ml) incorporation for about 30 to about 60 minutes (previously shown to be time-linear) into total digitonin-precipitable sterols. […] Percent inhibition was calculated from the average of duplicates vs. triplicate vehicle controls conducted simultaneously.
The primary rat hepatocyte assay for cholesterol bio-synthesis inhibition was conducted as described in Example 2 except the preincubation was about 45 minutes and the 14C-acetate incorporation was about 30 minutes. The indicated compounds were purified from the same natural product source as the mixture used in Example 2. […] Two-component mixtures of the constituents separated from the tocotrienol mixture were tested under the conditions indentical to Table 2A.

SMILES	inhibition at 125 µg/mL (125 µg/ml, Expt. # 2, read-out: % Inhibition at µg/ml conc: 125)	inhibition at 250 µg/mL (250 µg/ml, Expt. # 1, read-out: % Inhibition at µg/ml conc: 250)	inhibition at 250 µg/mL (250 µg/ml, Expt. # 2, read-out: % Inhibition at µg/ml conc: 250)	inhibition at 500 µg/mL (500 µg/ml, Expt. # 1, read-out: % Inhibition at µg/ml conc: 500)	inhibition at 500 µg/mL (500 µg/ml, Expt. # 2, read-out: % Inhibition at µg/ml conc: 500)	IC50 (Expt. # 1, read-out: IC₅₀)	IC50 (Expt. # 2, read-out: IC₅₀)	times more active than alpha-tocotrienol (rat and chicken hepatocyte system)	inhibition at 125 µg/mL (read-out: % Inhibition at µg/ml conc: 125, 125 µg/ml, Expt. # 2)	inhibition at 250 µg/mL (read-out: % Inhibition at µg/ml conc: 250, 250 µg/ml, Expt. # 1)	inhibition at 250 µg/mL (read-out: % Inhibition at µg/ml conc: 250, 250 µg/ml, Expt. # 2)	inhibition at 500 µg/mL (read-out: % Inhibition at µg/ml conc: 500, 500 µg/ml, Expt. # 1)	inhibition at 500 µg/mL (read-out: % Inhibition at µg/ml conc: 500, 500 µg/ml, Expt. # 2)	IC50 (read-out: IC₅₀, Expt. # 1)	IC50 (read-out: IC₅₀, Expt. # 2)
CC(C)=CCC/C(C)=C/CC/C(C)=C/CC[C@]1(C)CCc2cc(O)cc(C)c2O1 [d-δ-tocotrienol]	26%	49%	33%	62%	63%	260 µg/mL (≈ 656 µM)	340 µg/mL (≈ 857 µM)	at least 5 times	–	–	–	–	–	–	–
CC(C)=CCC/C(C)=C/CC/C(C)=C/CC[C@]1(C)CCc2cc(O)c(C)c(C)c2O1 [d-γ-tocotrienol]	–	–	–	–	–	–	–	–	28%	48%	34%	60%	61%	270 µg/mL (≈ 658 µM)	360 µg/mL (≈ 877 µM)
